Measurements reported in ChEMBL document CHEMBL1201862, “PubChem BioAssay data set” (2004).
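Exposure lasted 48 hours, with cells grown in 96-well plates and compounds tested at five concentrations. GI50 marks 50% less growth.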 The source made the active and inactive calls. No stated cut-off is given here; in the data, active = GI50 up to about 1.1 µM and inactive = higher.

Experiments:
Assay in all cases: growth of human tumour cells (NCI), 48 h
SF-268 = system: SF-268
SK-MEL-28 = system: SK-MEL-28
786-0 = system: 786-0
Malme-3M = system: Malme-3M
UACC-257 = system: UACC-257
SF-295 = system: SF-295
SN12C = system: SN12C
TK-10 = system: TK-10
UACC-62 = system: UACC-62
HT-29 = system: HT-29
SW-620 = system: SW-620
COLO 205 = system: COLO 205
SR = system: SR
SK-OV-3 = system: SK-OV-3
A498 = system: A498

Measured: GI50

C#CN1C(=O)c2c(c(-c3ccccc3)c(-c3ccc(Oc4ccc(-c5c(-c6ccccc6)c6c(c(-c7ccccc7)c5-c5ccccc5)C(=O)N(C#C)C6=O)cc4)cc3)c(-c3ccccc3)c2-c2ccccc2)C1=O
inactive: SF-268 > 100 µM | SK-MEL-28 > 100 µM | 786-0 > 100 µM | Malme-3M > 100 µM | UACC-257 > 100 µM | SF-295 > 100 µM | SN12C 30.1 µM | TK-10 > 100 µM | UACC-62 > 100 µM | HT-29 > 100 µM | SW-620 > 100 µM | COLO 205 > 100 µM

CC(=O)CNC(=O)OC(C)(C)C
inactive: SF-268 > 100 µM | SK-MEL-28 > 100 µM | 786-0 > 100 µM | Malme-3M > 100 µM | UACC-257 > 100 µM | SR > 100 µM | SF-295 > 100 µM | SK-OV-3 > 100 µM | A498 > 100 µM | SN12C > 100 µM | TK-10 > 100 µM | UACC-62 > 100 µM | HT-29 > 100 µM | SW-620 > 100 µM

COc1ccc(-c2nc3c(nc2-c2ccc(OC)cc2)C(N)=NS(=O)(=O)N3)cc1
inactive: SF-268 > 100 µM | SK-MEL-28 > 100 µM | 786-0 > 100 µM | Malme-3M > 100 µM | UACC-257 > 100 µM | SF-295 > 100 µM | SK-OV-3 > 100 µM | A498 > 100 µM | SN12C > 100 µM | TK-10 > 100 µM | UACC-62 > 100 µM | HT-29 > 100 µM | SW-620 > 100 µM | COLO 205 > 100 µM

COC(=O)C1=C(C)N(NC(N)=O)C2(N)N(NC(N)=O)C(C)=C(C(=O)OC)C12C(=O)OC (stereo not given)
inactive: SF-268 > 100 µM | SK-MEL-28 > 100 µM | 786-0 > 100 µM | Malme-3M > 100 µM | UACC-257 > 100 µM | SF-295 > 10 µM | SK-OV-3 > 100 µM | A498 > 100 µM | SN12C > 100 µM | TK-10 > 100 µM | UACC-62 > 100 µM | HT-29 > 100 µM | SW-620 > 100 µM | COLO 205 > 100 µM

O=C(/C=C/c1ccc(OCCCCCCCCCCOc2ccc(/C=C/C(=O)c3ccc(Cl)cc3)cc2)cc1)c1ccc(Cl)cc1
inactive: SF-268 > 100 µM | SK-MEL-28 > 100 µM | 786-0 > 100 µM | Malme-3M > 100 µM | UACC-257 > 100 µM | SF-295 > 100 µM | SK-OV-3 > 100 µM | A498 > 100 µM | SN12C > 100 µM | TK-10 > 100 µM | UACC-62 > 100 µM | HT-29 > 100 µM | SW-620 > 100 µM | COLO 205 > 100 µM

O=C1c2ccccc2C(=O)c2nc(-c3ccccc3)c(-c3ccccc3)nc21
inactive: SF-268 > 100 µM | SK-MEL-28 > 74.1 µM | 786-0 > 61.7 µM | Malme-3M 1.22 µM | UACC-257 1.89 µM | SF-295 11 µM | SK-OV-3 > 100 µM | A498 28.2 µM | TK-10 > 100 µM | UACC-62 2.74 µM | HT-29 21.7 µM | SW-620 2.7 µM | COLO 205 17.7 µM

c1ccc(SC23C4C5C6C4C2C6C53)nc1 (stereo not given)
inactive: SF-268 > 31.6 µM | SK-MEL-28 > 100 µM | 786-0 > 100 µM | Malme-3M > 100 µM | UACC-257 > 100 µM | SR > 19.6 µM | SF-295 > 100 µM | SK-OV-3 > 100 µM | A498 > 63.7 µM | SN12C > 100 µM | TK-10 > 67.9 µM | UACC-62 > 100 µM | HT-29 > 100 µM | SW-620 > 100 µM | COLO 205 > 100 µM

O=C(CC(=O)c1cccc2ccccc12)C(=O)NC1C2CC3CC(C2)CC1C3 (stereo not given)
inactive: SF-268 > 100 µM | 786-0 > 100 µM | Malme-3M > 100 µM | UACC-257 > 100 µM | SF-295 > 100 µM | SK-OV-3 > 100 µM | A498 > 100 µM | SN12C > 100 µM | TK-10 > 100 µM | UACC-62 > 100 µM | HT-29 > 100 µM | SW-620 > 100 µM | COLO 205 > 100 µM

CN(C)C(=S)Nc1nnc(Nc2ccccc2)s1
inactive: SK-MEL-28 > 100 µM | 786-0 > 100 µM | Malme-3M > 100 µM | UACC-257 59 µM | SR > 100 µM | SK-OV-3 > 100 µM | A498 > 100 µM | SN12C > 100 µM | HT-29 > 100 µM | SW-620 > 100 µM | COLO 205 > 100 µM

COC(=O)/C=C/c1cc(OC)c(OC)c(OC)c1
inactive: SF-268 > 100 µM | SK-MEL-28 > 100 µM | 786-0 > 100 µM | Malme-3M > 100 µM | UACC-257 > 100 µM | SR > 100 µM | SF-295 > 100 µM | SK-OV-3 > 100 µM | SN12C > 100 µM | TK-10 > 100 µM | UACC-62 78.3 µM | HT-29 > 100 µM | SW-620 > 100 µM | COLO 205 > 100 µM

COc1ccc(/C(=N\NC(=N)N)C(c2ccc(OC)cc2)C2OC(=O)c3ccccc32)cc1 (stereo not given)
inactive: SF-268 > 100 µM | SK-MEL-28 > 100 µM | 786-0 > 100 µM | Malme-3M > 100 µM | UACC-257 > 100 µM | SR > 100 µM | SF-295 > 100 µM | SK-OV-3 > 100 µM | SN12C > 100 µM | UACC-62 > 100 µM | HT-29 > 100 µM | SW-620 > 100 µM | COLO 205 > 100 µM

C1=CC(N(c2ccccc2)C2C=CCCC2)CCC1 (stereo not given)
inactive: SF-268 > 100 µM | SK-MEL-28 > 100 µM | 786-0 > 100 µM | SF-295 85.7 µM | SK-OV-3 > 100 µM | A498 > 100 µM | SN12C > 100 µM | TK-10 > 100 µM | UACC-62 > 100 µM | HT-29 > 100 µM | SW-620 > 100 µM | COLO 205 > 100 µM

Clc1cccc(-c2nnc(-c3nn(-c4ccccc4)c4nc5ccccc5nc34)o2)c1
inactive: SF-268 > 100 µM | SK-MEL-28 > 100 µM | 786-0 > 100 µM | Malme-3M > 100 µM | UACC-257 > 100 µM | SF-295 > 100 µM | SK-OV-3 > 100 µM | SN12C > 100 µM | TK-10 > 100 µM | UACC-62 > 100 µM | HT-29 > 100 µM | SW-620 > 100 µM | COLO 205 > 100 µM

O=C1Nc2ccccc2C12CCNC2Cc1ccccc1 (stereo not given)
inactive: SF-268 > 100 µM | SK-MEL-28 > 100 µM | 786-0 > 100 µM | Malme-3M > 100 µM | UACC-257 > 100 µM | SF-295 > 100 µM | SK-OV-3 > 100 µM | A498 > 100 µM | TK-10 > 100 µM | UACC-62 > 100 µM | HT-29 > 100 µM | SW-620 > 100 µM | COLO 205 > 100 µM
